Assay results reported in patent publication US7488841B2, “Composition containing acyl group” (Asahi Kasei Chemicals Corporation, priority 2002, dated 2009).

Test: Moisture absorption rate under high humidity and moisture retention under low humidity
Format: physicochemical
Conditions: 25° C.; for Moisture absorption rates under low humidity after different elapsed time (%): after 313 hours at high humidity
Procedure: The moisture absorption rate under high humidity and the moisture retention rate under low humidity were evaluated for the composition produced in Example 7 and urea as a contrast. Specifically, 1 g of dried sample was dried in a weighing bottle and weighed precisely, and left stand in a desiccator under relative humidity as high as 84% at 25° C. while measuring the sample weight with time until 313 hours has elapsed. Then, the same sample was transferred into a desiccator under relative humidity as low as 33% at 25° C., and left stand in the desiccator while measuring the sample weight with time in the same manner as above considering the point 313 hours has elapsed as a test starting point (0 hr). The moisture absorption rate was obtained in accordance with the following equation. Moisture absorption rate (%)=(Wt−W0/W0)×100 W0: dry weight before being left stand, Wt: weight at the time of each measuring

## NC(N)=O [Urea, urea]
During the course of moisture absorption, relative humidity 84%
  deliquescent properties: showed its deliquescent properties
Left stand under low humidity, relative humidity 33%
  moisture retention: released almost all its moisture
Relative humidity 33%, 0 Hr
  Moisture absorption rates under low humidity after different elapsed time (%): 72.7%
Relative humidity 33%, 25 Hr
  Moisture absorption rates under low humidity after different elapsed time (%): 1.2%
Relative humidity 33%, 49 Hr
  Moisture absorption rates under low humidity after different elapsed time (%): 0.3%
Relative humidity 33%, 75 Hr
  Moisture absorption rates under low humidity after different elapsed time (%): 0.4%
Relative humidity 33%, 141 Hr
  Moisture absorption rates under low humidity after different elapsed time (%): 0.3%
Relative humidity 84%, 5 Hr
  Moisture absorption rates under high humidity after different elapsed time (%): 0.2%
Relative humidity 84%, 27 Hr
  Moisture absorption rates under high humidity after different elapsed time (%): 3.2%
Relative humidity 84%, 48 Hr
  Moisture absorption rates under high humidity after different elapsed time (%): 7.4%
Relative humidity 84%, 120 Hr
  Moisture absorption rates under high humidity after different elapsed time (%): 24.7%
Relative humidity 84%, 197 Hr
  Moisture absorption rates under high humidity after different elapsed time (%): 42.6%
Relative humidity 84%, 313 Hr
  Moisture absorption rates under high humidity after different elapsed time (%): 72.7%
